Legend:
[1] = system: CyPPO16 wild type (SEQ ID NO: 1) in PPO-deficient E. coli BT3(ΔPPO); format: cell-based; settings: LB agar, 37° C., light, 16 to 20 hours
Protocol: (§1) The mutated CyPPO gene obtained from the Example 2 was transformed to BT3 (ΔPPO) strain which is deficient of PPO activity and cultured in LB media with PPO-inhibiting herbicide, thereby examining whether growth of transformed BT3 was not inhibited.
(§2) BT3 competent cells were transformed with the pET303-CyPPO16 and pET303-CyPPO17 plasmids and those with a mutation(s) constructed in Example 2 respectively, and were cultured in LB agar media containing carbenicillin (Gold Biotechnology, Co., Ltd.).
(§3) Single colony of E. coli transformed with each CyPPO gene was cultured in 3 ml of LB broth containing carbenicillin overnight, and then was subcultured until absorbance (0D600) reached 0.5 to 1. Then, it was diluted with LB broth to OD600=0.5. Again, the diluted solution was serially diluted 4 times by a factor of one tenth.
(§4) The LB agar media (LB 25 g/l, Bacto agar 15 g/l) containing carbenicillin (100 μg/ml) and 0 to 4,000 μM of various herbicides dissolved in DMSO was prepared. Next, 10 μl of each diluted solution was dropped on the plate and cultured at 37° C. under light (Tables 7 and 9, FIGS. 2 to 6, and 18 to 22) or dark (Tables 8 and 10, FIGS. 7 to 17, and 23 to 33) for 16 to 20 hours. Then, extent of tolerance was evaluated.
(§5) The extent of herbicide tolerance of the mutated genes was evaluated by comparing that of mutated genes with that of wild type. The relative tolerance was represented with “+” as a factor of 10 times. Evaluation result was listed in Tables 7 to10 and FIGS. 2 to 33:
(§6) In Tables 7 to 10, tolerance level was presented as of tolerance of wild type and of variants equivalent to that of wild type, and was done as ‘+’ per each 10 fold resistance until ‘+++++’ as maximal resistance. (Tolerance level was evaluated by relative growth level of variants to that of wild type in the media containing highest concentration of herbicide; ‘+’=1-9 fold higher tolerance, ‘++’=10-99 fold higher tolerance, ‘+++’=100-999 fold higher tolerance, ‘++++’=1,000-9,999 fold higher tolerance, ‘+++++’=more than 10,000 fold higher tolerance)

[2] = system: CyPPO17 wild type (SEQ ID NO: 3) in PPO-deficient E. coli BT3(ΔPPO); format: cell-based; settings: LB agar, 37° C., light, 16 to 20 hours
Protocol: as §1, §2, §3, §4, §5, §6

[3] = system: CyPPO16 (SEQ ID NO: 1) variant A162C in PPO-deficient E. coli BT3(ΔPPO); format: cell-based; settings: LB agar, 37° C., light, 16 to 20 hours
Protocol: as §1, §2, §3, §4
(§7) The extent of herbicide tolerance of the mutated genes was evaluated by comparing that of mutated genes with that of wild type. The relative tolerance was represented with “+” as a factor of 10 times.
(§8) In Tables 7 to 10, tolerance level was presented as of tolerance of wild type and of variants equivalent to that of wild type, and was done as ‘+’ per each 10 fold resistance until ‘+++++’ as maximal resistance.

[4] = system: CyPPO16 (SEQ ID NO: 1) variant A162L in PPO-deficient E. coli BT3(ΔPPO); format: cell-based; settings: LB agar, 37° C., light, 16 to 20 hours
Protocol: as §1, §2, §3, §4, §7, §8

[5] = system: CyPPO16 (SEQ ID NO: 1) variant F360C in PPO-deficient E. coli BT3(ΔPPO); format: cell-based; settings: LB agar, 37° C., light, 16 to 20 hours
Protocol: as §1, §2, §3, §4, §7, §8

[6] = system: CyPPO16 (SEQ ID NO: 1) variant F360I in PPO-deficient E. coli BT3(ΔPPO); format: cell-based; settings: LB agar, 37° C., light, 16 to 20 hours
Protocol: as §1, §2, §3, §4, §7, §8

[7] = system: CyPPO16 (SEQ ID NO: 1) variant F360L in PPO-deficient E. coli BT3(ΔPPO); format: cell-based; settings: LB agar, 37° C., light, 16 to 20 hours
Protocol: as §1, §2, §3, §4, §7, §8

[8] = system: CyPPO16 (SEQ ID NO: 1) variant F360M in PPO-deficient E. coli BT3(ΔPPO); format: cell-based; settings: LB agar, 37° C., light, 16 to 20 hours
Protocol: as §1, §2, §3, §4, §7, §8

[9] = system: CyPPO16 (SEQ ID NO: 1) variant F360V in PPO-deficient E. coli BT3(ΔPPO); format: cell-based; settings: LB agar, 37° C., light, 16 to 20 hours
Protocol: as §1, §2, §3, §4, §7, §8

[10] = system: CyPPO16 (SEQ ID NO: 1) variant V305M in PPO-deficient E. coli BT3(ΔPPO); format: cell-based; settings: LB agar, 37° C., light, 16 to 20 hours
Protocol: as §1, §2, §3, §4, §7, §8

[11] = system: CyPPO17 (SEQ ID NO: 3) variant A166C in PPO-deficient E. coli BT3(ΔPPO); format: cell-based; settings: LB agar, 37° C., light, 16 to 20 hours
Protocol: as §1, §2, §3, §4, §7, §8

[12] = system: CyPPO17 (SEQ ID NO: 3) variant A166L in PPO-deficient E. coli BT3(ΔPPO); format: cell-based; settings: LB agar, 37° C., light, 16 to 20 hours
Protocol: as §1, §2, §3, §4, §7, §8

[13] = system: CyPPO17 (SEQ ID NO: 3) variant F359C in PPO-deficient E. coli BT3(ΔPPO); format: cell-based; settings: LB agar, 37° C., light, 16 to 20 hours
Protocol: as §1, §2, §3, §4, §7, §8

[14] = system: CyPPO17 (SEQ ID NO: 3) variant F359I in PPO-deficient E. coli BT3(ΔPPO); format: cell-based; settings: LB agar, 37° C., light, 16 to 20 hours
Protocol: as §1, §2, §3, §4, §7, §8

[15] = system: CyPPO17 (SEQ ID NO: 3) variant F359L in PPO-deficient E. coli BT3(ΔPPO); format: cell-based; settings: LB agar, 37° C., light, 16 to 20 hours
Protocol: as §1, §2, §3, §4, §7, §8

[16] = system: CyPPO17 (SEQ ID NO: 3) variant F359M in PPO-deficient E. coli BT3(ΔPPO); format: cell-based; settings: LB agar, 37° C., light, 16 to 20 hours
Protocol: as §1, §2, §3, §4, §7, §8

[17] = system: CyPPO17 (SEQ ID NO: 3) variant V304M in PPO-deficient E. coli BT3(ΔPPO); format: cell-based; settings: LB agar, 37° C., light, 16 to 20 hours
Protocol: as §1, §2, §3, §4, §7, §8

[18] = target: Spirulina subsalsa PPO CyPPO16 (SEQ ID NO: 1) variant A162L (MBP fusion); assay: PPO enzyme inhibition (IC50), MBP-fused PPO; format: biochemical; settings: 50 μM protoporphyrinogen IX, pH 8.0, room temperature, 30 min
Protocol: (§9) Thus, PPO proteins of wild type and variants were expressed as fused to MBP and were used for experiments.
(§10) The following process for purification of PPO protein was performed in a 4° C. cold room. Amylose resin (NEB) was packed to 1.5×15 cm column (Bio-Rad, Econo Columns 1.5×15 cm, glass chromatography column, max. vol), and the obtained protein extracts were loaded to the column at a flow rate of 0.2 ml/min. The column was washed with 3 column volumes of buffer and the presence of protein in the washing solution was examined. When the protein was no longer detected, the washing procedure was terminated. Then, the MBP-PPO protein was eluted with approximately 2 column volumes of buffer containing 20 mM maltose. The protein concentration of each eluent was determined and the elution was stopped when the protein was no longer detected. Ten microliter of each fraction was investigated for protein quantification and SDS-PAGE analysis. The highly pure fractions of PPO protein variants were used for the enzyme assay.
(§11) Since protoporphyrinogen IX, a substrate of PPO protein, was not commercially available, it was chemically synthesized in the laboratory. Overall process was performed in dark under nitrogen stream. […] of protoporphyrin IX was dissolved in 20 ml of 20% (v/v) EtOH, and stirred under dark condition for 30 minutes. The obtained protoporphyrin IX solution was put into a 15 ml screw tube in an amount of 800 μl, and flushed with nitrogen gas for 5 minutes. To this, 1.5 g of sodium amalgam was added and vigorously shaken for 2 minutes. The lid was opened to exhaust hydrogen gas in the tube. Thereafter, the lid was closed and incubated for 3 minutes. The protoporphyrinogen IX solution was filtered using syringe and cellulose membrane filter. […] To determine the enzyme activity of PPO protein, a reaction mixture was prepared with the following composition (based on 10 ml): 50 mM Tris-Cl (pH 8.0); 50 mM NaCl; 0.04% (v/v) Tween 20; 40 mM glucose (0.072 g); 5 units glucose oxidase (16.6 mg); and 10 units catalase (1 μl).
(§12) Hundred and eighty microliters of a reaction mixture containing the purified PPO protein were placed in 96 well plates and 20 μl of […] were added. […] The reaction proceeded at room temperature for 30 min and the fluorescence of protoporphyrin IX was measured using Microplate reader (Sense, Hidex) (excitation: 405 nm; emission: 633 nm). […] To this, 2.7 N HCl was added, and the absorbance at 408 nm was measured. A standard curve was generated using standard protoporphyrin IX, and PPO activity was measured by calibration of protoporphyrin IX using the standard curve of protoporphyrin IX.

[19] = target: Spirulina subsalsa PPO CyPPO16 (SEQ ID NO: 1) variant L327T (MBP fusion); assay: PPO enzyme inhibition (IC50), MBP-fused PPO; format: biochemical; settings: 50 μM protoporphyrinogen IX, pH 8.0, room temperature, 30 min
Protocol: as §9, §10, §11, §12

[20] = target: Spirulina subsalsa PPO CyPPO16 (SEQ ID NO: 1) variant R85A (MBP fusion); assay: PPO enzyme inhibition (IC50), MBP-fused PPO; format: biochemical; settings: 50 μM protoporphyrinogen IX, pH 8.0, room temperature, 30 min
Protocol: as §9, §10, §11, §12

[21] = target: Spirulina subsalsa PPO CyPPO16 (SEQ ID NO: 1) variant V160C (MBP fusion); assay: PPO enzyme inhibition (IC50), MBP-fused PPO; format: biochemical; settings: 50 μM protoporphyrinogen IX, pH 8.0, room temperature, 30 min
Protocol: as §9, §10, §11, §12

[22] = target: Spirulina subsalsa PPO CyPPO16 (SEQ ID NO: 1) variant V305M (MBP fusion); assay: PPO enzyme inhibition (IC50), MBP-fused PPO; format: biochemical; settings: 50 μM protoporphyrinogen IX, pH 8.0, room temperature, 30 min
Protocol: as §9, §10, §11, §12

[23] = target: Spirulina subsalsa PPO CyPPO16, wild type, SEQ ID NO: 1 (MBP fusion); assay: PPO enzyme inhibition (IC50), MBP-fused PPO; format: biochemical; settings: 50 μM protoporphyrinogen IX, pH 8.0, room temperature, 30 min
Protocol: as §9, §10, §11, §12

**Q.** Which “Herbicide tolerance (relative to wild type)” value [1] does the source give for CCOC(=O)COc1cc(-c2nn(C)c(OC(F)F)c2Cl)c(F)cc1Cl [pyraflufen-ethyl] here?
**A.** The value was “−”.

**Q.** And the “Herbicide tolerance (relative to wild type)” value [2]?
**A.** Its value is “−”.

**Q.** What about the “Herbicide tolerance (relative to wild type)” value [3] of the same molecule?
**A.** The value was “+++ (100-999 fold higher tolerance)”.

**Q.** And the “Herbicide tolerance (relative to wild type)” value [4]?
**A.** Its value is “+++ (100-999 fold higher tolerance)”.

**Q.** What about the “Herbicide tolerance (relative to wild type)” value [5] of the same molecule?
**A.** The value was “+++ (100-999 fold higher tolerance)”.

**Q.** What about the “Herbicide tolerance (relative to wild type)” value [6] of the same molecule?
**A.** The value was “++ (10-99 fold higher tolerance)”.

**Q.** What about the “Herbicide tolerance (relative to wild type)” value [7] of the same molecule?
**A.** Its value is “++ (10-99 fold higher tolerance)”.

**Q.** What about the “Herbicide tolerance (relative to wild type)” value [8] of the same molecule?
**A.** Its value is “++ (10-99 fold higher tolerance)”.

**Q.** What about the “Herbicide tolerance (relative to wild type)” value [9] of the same molecule?
**A.** Its value is “++ (10-99 fold higher tolerance)”.

**Q.** And the “Herbicide tolerance (relative to wild type)” value [10]?
**A.** Its value is “+++ (100-999 fold higher tolerance)”.

**Q.** What about the “Herbicide tolerance (relative to wild type)” value [11] of the same molecule?
**A.** Its value is “++ (10-99 fold higher tolerance)”.

**Q.** And the “Herbicide tolerance (relative to wild type)” value [12]?
**A.** Its value is “++ (10-99 fold higher tolerance)”.

**Q.** And the “Herbicide tolerance (relative to wild type)” value [13]?
**A.** Its value is “+ (1-9 fold higher tolerance)”.

**Q.** And the “Herbicide tolerance (relative to wild type)” value [14]?
**A.** The value was “++ (10-99 fold higher tolerance)”.

**Q.** And the “Herbicide tolerance (relative to wild type)” value [15]?
**A.** The value was “++ (10-99 fold higher tolerance)”.

**Q.** What about the “Herbicide tolerance (relative to wild type)” value [16] of the same molecule?
**A.** Its value is “++ (10-99 fold higher tolerance)”.

**Q.** What about the “Herbicide tolerance (relative to wild type)” value [17] of the same molecule?
**A.** The value was “+ (1-9 fold higher tolerance)”.

**Q.** For Cc1nn(-c2cc(NS(C)(=O)=O)c(Cl)cc2Cl)c(=O)n1C(F)F [sulfentrazone], which IC50 [18] is on record?
**A.** The IC50 was 1.1 µM.

**Q.** And the IC50 [19]?
**A.** Its IC50 is 1.83 µM.

**Q.** What about the IC50 [20] of the same molecule?
**A.** Its IC50 is 1.04 µM.

**Q.** And the IC50 [21]?
**A.** The IC50 was 0.584 µM.

**Q.** And the IC50 [22]?
**A.** Its IC50 is 0.305 µM.

**Q.** What about the IC50 [23] of the same molecule?
**A.** The IC50 was 0.245 µM.

From patent US11219221B2 (FarmHannong Co., Ltd., priority 2017, dated 2022)
